Results taken from article PMC6545111 (Journal of medicinal chemistry, 2018).
Where “and” joins values, the source holds several entries; their conditions need not be identical. Equal entries are not always repeated. Where two headings read alike, the source gives them in different places.

How the values were obtained:
[1] = Tissue distribution in mice bearing RS4; type: in vivo, SCID mice; settings: IV, 5mg/kg; for Concentration of QCA570 in Heart / Concentration of QCA570 in Intestine / Concentration of QCA570 in Kidney / Concentration of QCA570 in Liver / Concentration of QCA570 in Lung / Concentration of QCA570 in Tumor / Concentration of QCA570 in plasma: individual mice
[2] = test system: BRD2, BRD3 and BRD4 proteins in MV4;11 cells; assay: Western blotting of BET proteins in MV4; type: cell-based; settings: 3 h treatment
RS4;11 cells = assay: Apoptosis by flow cytometry; type: cell-based, human
[3] = test system: BRD2, BRD3, BRD4, c-Myc and cleaved PARP in RS4;11 xenograft tumors; assay: Pharmacodynamic analysis in RS4; type: in vivo, SCID mice
GSPT1 protein = GSPT1 protein (Homo sapiens, UniProt P15170); assay: Western blotting of GSPT1 in MV4; type: cell-based; settings: MV4;11 and RS4;11 cells
[4] = test system: cleaved PARP and cleaved Caspase 3 in RS4;11 cells; assay: Western blotting of cleaved PARP / caspase 3 in RS4; type: cell-based, human
RS4;11 xenograft tumors = assay: Anti-tumor efficacy, RS4; type: in vivo, SCID mice
[5] = test system: c-Myc protein in RS4;11 cells; assay: Western blotting of c-Myc in RS4; type: cell-based, human; settings: RS4;11 cell line
[6] = test system: MV4;11, MOLM-13 and RS4;11 acute leukemia cell lines; assay: Cell growth inhibition, statements covering the three leukemia cell lines; type: cell-based, human
MV4;11 xenograft tumors = settings: 3 times per week for 2 weeks, intravenous
[7] = test system: BRD2, BRD3 and BRD4 proteins in RS4;11 cells; settings: 3 h treatment
[8] = test system: c-Myc protein in MV4;11 cells; assay: Western blotting of c-Myc in MV4; type: cell-based, human; settings: MV4;11 cell line
[9] = test system: cleaved PARP and cleaved Caspase 3 in MV4;11 cells; assay: Western blotting of cleaved PARP / caspase 3 in MV4; type: cell-based, human; settings: MV4;11 cell line
MOLM-13 cells = assay: Apoptosis by flow cytometry; type: cell-based, human
MV4;11 cells = assay: Apoptosis by flow cytometry; type: cell-based, human
BRD4 BD1 protein = BRD4 BD1 protein (Homo sapiens, UniProt O60885); assay: biochemical
[10] = RS4;11 cell line, 24 h treatment
[11] = RS4;11 xenograft, all treatment groups

GSPT1 protein, sequence (P15170 whole entry): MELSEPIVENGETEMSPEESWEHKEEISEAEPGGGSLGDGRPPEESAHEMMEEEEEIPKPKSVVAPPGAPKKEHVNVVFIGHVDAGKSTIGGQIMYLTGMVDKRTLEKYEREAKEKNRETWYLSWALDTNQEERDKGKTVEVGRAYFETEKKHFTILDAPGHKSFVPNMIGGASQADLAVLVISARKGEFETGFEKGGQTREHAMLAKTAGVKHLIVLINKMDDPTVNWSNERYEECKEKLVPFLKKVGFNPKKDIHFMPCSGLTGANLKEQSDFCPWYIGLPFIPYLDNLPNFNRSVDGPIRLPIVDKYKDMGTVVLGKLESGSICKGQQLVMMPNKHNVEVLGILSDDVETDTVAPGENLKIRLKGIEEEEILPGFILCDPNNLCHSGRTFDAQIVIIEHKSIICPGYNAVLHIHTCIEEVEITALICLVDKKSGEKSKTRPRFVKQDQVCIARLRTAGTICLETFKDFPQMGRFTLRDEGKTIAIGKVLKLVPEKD

Molecule: 3-(4-(5-(4-((3-Benzyl-9-methyl-4H,6H-thieno[2,3-e][1,2,4]triazolo[3,4-c][1,4]oxazepin-2-yl)ethynyl)-1H-pyrazol-1-yl)pent-1-yn-1-yl)-1-oxoisoindolin-2-yl)piperidine-2,6-dione [Compound 35]
- Concentration of QCA570 in Heart ([1]; 1 h, listed as QCA570, 5 mg/kg): 373 ng/g and 288 ng/g
- Concentration of QCA570 in Intestine ([1]; 1 h, listed as QCA570, 5 mg/kg): 1283 ng/g and 1009 ng/g
- Concentration of QCA570 in Kidney ([1]; 1 h, listed as QCA570, 5 mg/kg): 649 ng/g and 675 ng/g
- Concentration of QCA570 in Liver ([1]; 1 h, listed as QCA570, 5 mg/kg): 1227 ng/g and 1720 ng/g
- Concentration of QCA570 in Lung ([1]; 1 h, listed as QCA570, 5 mg/kg): 1041 ng/g and 696 ng/g
- Concentration of QCA570 in Tumor ([1]; 1 h, listed as QCA570, 5 mg/kg): 642 ng/g and 405 ng/g
- Concentration of QCA570 in plasma ([1]; 1 h, listed as QCA570, 5 mg/kg): 1575 ng/mL and 2360 ng/mL
- Concentration of QCA570 in Heart ([1]; 3 h, listed as QCA570, 5 mg/kg): 17 ng/g and 22 ng/g
- Concentration of QCA570 in Intestine ([1]; 3 h, listed as QCA570, 5 mg/kg): 50 ng/g and 92 ng/g
- Concentration of QCA570 in Kidney ([1]; 3 h, listed as QCA570, 5 mg/kg): 40 ng/g and 49 ng/g
- Concentration of QCA570 in Liver ([1]; 3 h, listed as QCA570, 5 mg/kg): 57 ng/g and 209 ng/g
- Concentration of QCA570 in Lung ([1]; 3 h, listed as QCA570, 5 mg/kg): 35 ng/g and 89 ng/g
- Concentration of QCA570 in Tumor ([1]; 3 h, listed as QCA570, 5 mg/kg): 177 ng/g and 199 ng/g
- Concentration of QCA570 in plasma ([1]; 3 h, listed as QCA570, 5 mg/kg): 47 ng/mL and 263 ng/mL
- Concentration of QCA570 in Heart ([1]; 6 h): BLQ
- Concentration of QCA570 in Intestine ([1]; 6 h): BLQ
- Concentration of QCA570 in Kidney ([1]; 6 h): BLQ
- Concentration of QCA570 in Liver ([1]; 6 h): BLQ
- Concentration of QCA570 in Lung ([1]; 6 h): BLQ
- Concentration of QCA570 in plasma ([1]; 6 h): BLQ
- Concentration of QCA570 in Tumor ([1]; 6 h, listed as QCA570, 5 mg/kg): 87.9 ng/g and 68.7 ng/g
- Concentration of QCA570 in Heart, mean ([1]; Mean (1h)): 331 ng/g
- Concentration of QCA570 in Intestine, mean ([1]; Mean (1h)): 1146 ng/g
- Concentration of QCA570 in Kidney, mean ([1]; Mean (1h)): 662 ng/g
- Concentration of QCA570 in Liver, mean ([1]; Mean (1h)): 1473 ng/g
- Concentration of QCA570 in Lung, mean ([1]; Mean (1h)): 868 ng/g
- Concentration of QCA570 in Tumor, mean ([1]; Mean (1h)): 524 ng/g
- Concentration of QCA570 in plasma, mean ([1]; Mean (1h)): 1968 ng/mL
- Concentration of QCA570 in Heart, mean ([1]; Mean (3h)): 19 ng/g
- Concentration of QCA570 in Intestine, mean ([1]; Mean (3h)): 71 ng/g
- Concentration of QCA570 in Kidney, mean ([1]; Mean (3h)): 44 ng/g
- Concentration of QCA570 in Liver, mean ([1]; Mean (3h)): 133 ng/g
- Concentration of QCA570 in Lung, mean ([1]; Mean (3h)): 62 ng/g
- Concentration of QCA570 in Tumor, mean ([1]; Mean (3h)): 188 ng/g
- Concentration of QCA570 in plasma, mean ([1]; Mean (3h)): 155 ng/mL
- Concentration of QCA570 in Heart, mean ([1]; Mean (6 h)): BLQ
- Concentration of QCA570 in Intestine, mean ([1]; Mean (6 h)): BLQ
- Concentration of QCA570 in Kidney, mean ([1]; Mean (6 h)): BLQ
- Concentration of QCA570 in Liver, mean ([1]; Mean (6 h)): BLQ
- Concentration of QCA570 in Lung, mean ([1]; Mean (6 h)): BLQ
- Concentration of QCA570 in Tumor, mean ([1]; Mean (6 h)): 78 ng/g
- Concentration of QCA570 in plasma, mean ([1]; Mean (6 h)): BLQ
- concentration effective in reducing BRD2 protein level [2]: 30 to 100 pM
- lowest concentration very effective in reducing BRD3 and BRD4 protein levels [2]: ≤ 10 pM
- apoptosis induction (RS4;11 cells; RS4;11, 0.1 nM, 24 h treatment): minimal effect
- cells undergoing apoptosis (RS4;11 cells; RS4;11, 0.1 nM, 48 h treatment): > 40%
- cells undergoing apoptosis (RS4;11 cells; RS4;11, 0.3–10 nM, 24 h treatment): 15–30%
- levels of BRD2, BRD3 and BRD4 proteins in tumor tissue ([3]; single intravenous dose 1 and 5 mg/kg, 1 h and 6 h time-points): dramatically reduces
- c-Myc protein levels in tumor tissue ([3]; single intravenous dose 1 and 5 mg/kg, all time points (1, 6, 24 h)): reduces c-Myc protein levels dramatically
- cleavage of PARP in tumor tissue ([3]; single intravenous dose, 6 h and 24 h time-points): very effective in inducing cleavage of PARP
- reduction of BRD4 protein level at 24 h, 5 mg/kg compared with 1 mg/kg ([3]; single intravenous dose, 24 h time-point): more effective
- effect on GSPT1 protein (GSPT1 protein): no effect
- caspase 3 cleavage [4, 10]: not detected
- lowest concentration inducing robust cleavage of PARP [4, 10]: 0.1 to 0.3 nM
- tumor response (RS4;11 xenograft tumors; RS4;11 xenograft, 5 mg/kg weekly): complete tumor growth inhibition but not tumor regression
- tumor response (RS4;11 xenograft tumors; RS4;11 xenograft, 1, 2.5 and 5 mg/kg, 3 times per week for 3 weeks): complete and long-lasting tumor regression
- animal weight loss (RS4;11 xenograft tumors; [11]): minimal animal weight loss
- signs of toxicity (RS4;11 xenograft tumors; [11]): no other signs of toxicity
- lowest concentration very effective in reducing c-Myc protein levels [5]: ≤ 10 pM
- times more potent than ZBC260 in cell growth inhibition ([6]; MV4;11 and MOLM-13 cell lines): > 10 times
- times more potent than ARV-771 in cell growth inhibition ([6]; each of the three cell lines): > 10 times
- times more potent than ARV-825 in cell growth inhibition ([6]; each of the three cell lines): > 10 times
- times more potent than dBET1 in cell growth inhibition ([6]; each of the three cell lines): > 1,000 times
- tumor response (MV4;11 xenograft tumors; 1 mg/kg): complete tumor regression
- tumor response (MV4;11 xenograft tumors; 5 mg/kg): complete and long-lasting tumor regression
- degradation of BRD2, BRD3 and BRD4 proteins ([7]; 0.5 nM): complete degradation
- concentration effective in reducing BRD2 protein level [7]: 30 to 100 pM
- lowest concentration very effective in reducing BRD3 and BRD4 protein levels [7]: ≤ 10 pM
- lowest concentration very effective in reducing c-Myc protein levels [8]: ≤ 30 pM
- lowest concentration inducing caspase 3 activation [9]: ≤ 0.3 nM
- lowest concentration inducing robust cleavage of PARP ([9]; 24 h treatment): 0.1 to 0.3 nM
- cells undergoing apoptosis (MOLM-13 cells; MOLM-13, as low as 1 nM, 24 h treatment): > 60%
- cells undergoing apoptosis (MV4;11 cells; MV4;11, as low as 1 nM, 24 h treatment): > 60%

Molecule: Cc1cc2c(s1)-n1c(C)nnc1COC2 [Compound 2, 2,9-dimethyl-4H,6H-thieno[2,3-e][1,2,4]triazolo[3,4-c][1,4]oxazepine]
- IC50 (BRD4 BD1 protein): 4400 ± 700 nM
- Ki (BRD4 BD1 protein): 1500 ± 200 nM

Molecule: Cc1nnc2n1-c1sc(C#Cc3cnn(C)c3)c(Cc3ccccc3)c1COC2 [Compound 22, 3-Benzyl-9-methyl-2-((1-methyl-1H-pyrazol-4-yl)ethynyl)-4H,6H-thieno[2,3-e][1,2,4]triazolo[3,4-c][1,4]oxazepine]
- apoptosis induction (RS4;11 cells; RS4;11, 1–10 μM): minimal to modest effect
- PARP cleavage ([4]; RS4;11 cells, 10 μM, 24 h): only marginally
- apoptosis induction (MOLM-13 cells; MOLM-13, 1–10 μM): minimal to modest effect
- apoptosis induction (MV4;11 cells; MV4;11, 1–10 μM): minimal to modest effect
